Like-named read-outs stand apart in the source and are kept apart here.

For ten compounds, IC50 results are on record in patent publication US10421765B2, “Tetrahydropyrido[4,3-d]pyrimidine inhibitors of ATR kinase” (Board of Regents, The University of Texas System, priority 2017, dated 2019).

Assay [1] has as its system ATR-driven phosphorylation of Chk1 kinase at Serine 345 in HT-29 colorectal adenocarcinoma cells. Briefly: pCHK1 cellular assay (CHK1 p-Ser345 AlphaScreen SureFire). The class given is cell-based. Particulars: 4-nitroquinoline N-oxide 12 uM, read-out: Cell IC50 (pCHK1 IC50 values). Summed up:
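HT-29 cells seeded overnight, treated with 1:3 serially diluted compound for 90 minutes at 37° C., then 12 uM (final) 4-nitroquinoline N-oxide for 120 minutes. Lysates read for Chk1 p-Ser345 by AlphaScreen SureFire; IC50 from four-parameter logistic fit, normalized to DMSO (max) and 5 uM ATR inhibitor (min).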
A general note: Alpha assays give light when donor and acceptor beads are brought close together.

Another assay has as its target ATR/ATRIP complex (Homo sapiens (Human), UniProt Q13535). As to the kind of experiment: ATR/ATRIP enzymatic assay (Caliper-based). Type of assay: biochemical. The note with it: FAM-labeled RAD17 peptide, ATP. Summed up: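 FLAG-TEV-ATR/His6-ATRIP co-expressed in HEK293 and anti-FLAG purified. Compound preincubated 30 min at 28 °C with enzyme (2x solution 4 nM), then FAM-RAD17 peptide (2x solution 10 uM, 2 μM ATP) added for 6 h at 28 °C; HEPES pH 8, 10 mM MnCl2. Caliper conversion read-out, IC50 from four-parameter fit.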

Where [2] appears, read: Homo sapiens, HT-29, HT-29 cells.
Setting [3] is: read-out: ATR/ATRIP Enzyme IC50.
Setting [4] is: estimated range, read-out: ATR/ATRIP Enzyme IC50 (estimated class).

Sequence of ATR/ATRIP complex (Q13535 whole entry): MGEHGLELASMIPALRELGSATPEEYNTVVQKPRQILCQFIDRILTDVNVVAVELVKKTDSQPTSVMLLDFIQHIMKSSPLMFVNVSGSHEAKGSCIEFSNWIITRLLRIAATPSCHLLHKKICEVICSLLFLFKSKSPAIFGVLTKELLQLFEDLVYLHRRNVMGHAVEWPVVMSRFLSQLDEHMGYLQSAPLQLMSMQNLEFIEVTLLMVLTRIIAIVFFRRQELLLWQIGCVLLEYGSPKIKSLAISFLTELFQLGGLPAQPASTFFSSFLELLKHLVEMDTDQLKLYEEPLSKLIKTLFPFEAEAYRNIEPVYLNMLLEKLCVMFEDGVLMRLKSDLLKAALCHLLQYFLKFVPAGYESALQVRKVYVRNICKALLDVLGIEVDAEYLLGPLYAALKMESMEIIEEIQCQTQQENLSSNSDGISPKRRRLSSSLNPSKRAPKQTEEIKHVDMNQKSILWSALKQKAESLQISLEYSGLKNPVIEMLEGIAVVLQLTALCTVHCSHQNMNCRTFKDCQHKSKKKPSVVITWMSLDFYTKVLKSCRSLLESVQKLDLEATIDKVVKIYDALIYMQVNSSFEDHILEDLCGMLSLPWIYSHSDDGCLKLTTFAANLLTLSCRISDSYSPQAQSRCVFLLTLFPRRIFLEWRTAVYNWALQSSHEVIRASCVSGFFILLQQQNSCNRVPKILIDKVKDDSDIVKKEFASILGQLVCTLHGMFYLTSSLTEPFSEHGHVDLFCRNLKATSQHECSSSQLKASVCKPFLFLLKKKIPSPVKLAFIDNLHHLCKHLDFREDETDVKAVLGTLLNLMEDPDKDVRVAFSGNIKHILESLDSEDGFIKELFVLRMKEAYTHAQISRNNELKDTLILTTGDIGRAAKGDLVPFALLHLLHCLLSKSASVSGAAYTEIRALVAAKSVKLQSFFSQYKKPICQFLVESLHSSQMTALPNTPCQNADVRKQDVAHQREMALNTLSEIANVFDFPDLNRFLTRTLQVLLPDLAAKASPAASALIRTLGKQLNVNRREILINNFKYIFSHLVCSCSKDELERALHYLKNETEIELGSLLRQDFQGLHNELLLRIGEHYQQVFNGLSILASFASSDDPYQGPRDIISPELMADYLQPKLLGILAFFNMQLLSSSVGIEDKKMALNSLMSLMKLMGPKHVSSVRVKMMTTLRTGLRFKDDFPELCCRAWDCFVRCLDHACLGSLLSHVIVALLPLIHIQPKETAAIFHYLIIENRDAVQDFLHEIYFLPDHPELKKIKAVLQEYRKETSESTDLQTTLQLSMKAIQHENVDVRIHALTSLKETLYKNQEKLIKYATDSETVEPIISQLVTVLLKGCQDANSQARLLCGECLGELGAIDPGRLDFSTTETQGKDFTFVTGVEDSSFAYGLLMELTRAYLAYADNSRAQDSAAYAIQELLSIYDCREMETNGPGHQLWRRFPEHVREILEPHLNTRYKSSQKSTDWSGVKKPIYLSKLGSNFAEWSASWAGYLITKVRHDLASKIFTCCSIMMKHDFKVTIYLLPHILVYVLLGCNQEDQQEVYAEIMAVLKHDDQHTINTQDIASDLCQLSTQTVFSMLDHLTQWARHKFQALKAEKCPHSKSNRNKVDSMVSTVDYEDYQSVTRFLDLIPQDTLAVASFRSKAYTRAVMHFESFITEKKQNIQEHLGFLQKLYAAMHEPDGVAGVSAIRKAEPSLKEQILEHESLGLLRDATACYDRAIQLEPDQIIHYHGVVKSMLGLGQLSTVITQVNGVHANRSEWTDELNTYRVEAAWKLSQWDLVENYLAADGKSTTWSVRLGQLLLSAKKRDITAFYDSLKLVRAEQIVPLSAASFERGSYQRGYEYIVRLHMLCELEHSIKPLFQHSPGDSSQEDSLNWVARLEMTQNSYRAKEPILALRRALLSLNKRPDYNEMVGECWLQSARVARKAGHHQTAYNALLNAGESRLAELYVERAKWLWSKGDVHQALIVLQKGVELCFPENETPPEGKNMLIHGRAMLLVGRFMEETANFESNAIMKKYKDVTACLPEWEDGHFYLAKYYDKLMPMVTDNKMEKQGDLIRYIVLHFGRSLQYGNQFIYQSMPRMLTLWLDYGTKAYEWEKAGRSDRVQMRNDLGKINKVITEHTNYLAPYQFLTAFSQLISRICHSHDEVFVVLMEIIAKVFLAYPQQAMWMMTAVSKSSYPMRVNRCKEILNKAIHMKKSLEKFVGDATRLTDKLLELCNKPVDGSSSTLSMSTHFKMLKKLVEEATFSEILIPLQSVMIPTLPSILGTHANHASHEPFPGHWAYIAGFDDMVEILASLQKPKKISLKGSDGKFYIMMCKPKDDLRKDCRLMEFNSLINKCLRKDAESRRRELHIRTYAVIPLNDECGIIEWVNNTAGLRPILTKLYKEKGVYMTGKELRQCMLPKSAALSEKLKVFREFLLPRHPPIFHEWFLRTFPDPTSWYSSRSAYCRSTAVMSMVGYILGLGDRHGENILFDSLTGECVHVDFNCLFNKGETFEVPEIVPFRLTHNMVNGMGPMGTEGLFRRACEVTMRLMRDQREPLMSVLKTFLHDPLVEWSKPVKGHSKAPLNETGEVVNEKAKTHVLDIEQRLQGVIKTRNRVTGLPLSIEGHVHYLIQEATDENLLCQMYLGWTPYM
Sequence of ATR/ATRIP complex (Q8WXE1 whole entry partner): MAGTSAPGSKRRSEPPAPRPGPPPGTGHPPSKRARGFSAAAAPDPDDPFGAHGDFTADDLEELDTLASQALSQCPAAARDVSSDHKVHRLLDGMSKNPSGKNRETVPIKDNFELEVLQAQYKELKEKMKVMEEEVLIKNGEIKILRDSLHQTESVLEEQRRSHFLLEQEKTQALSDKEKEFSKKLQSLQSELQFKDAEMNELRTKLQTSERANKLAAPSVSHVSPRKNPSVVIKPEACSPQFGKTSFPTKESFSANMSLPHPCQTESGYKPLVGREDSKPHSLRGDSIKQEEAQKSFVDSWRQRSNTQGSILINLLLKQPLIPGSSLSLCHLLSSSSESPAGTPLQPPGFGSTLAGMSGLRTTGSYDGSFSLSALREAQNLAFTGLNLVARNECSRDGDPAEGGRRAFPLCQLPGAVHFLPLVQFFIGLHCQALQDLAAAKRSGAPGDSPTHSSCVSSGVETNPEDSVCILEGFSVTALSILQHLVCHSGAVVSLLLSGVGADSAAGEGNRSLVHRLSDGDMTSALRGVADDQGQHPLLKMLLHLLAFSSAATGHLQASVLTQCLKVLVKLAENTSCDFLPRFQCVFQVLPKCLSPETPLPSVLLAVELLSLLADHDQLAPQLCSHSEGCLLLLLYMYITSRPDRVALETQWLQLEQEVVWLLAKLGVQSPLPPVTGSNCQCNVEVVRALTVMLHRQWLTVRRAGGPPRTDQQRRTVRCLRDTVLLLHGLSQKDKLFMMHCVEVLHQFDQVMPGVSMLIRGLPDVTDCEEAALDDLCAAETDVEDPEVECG

For `C[C@@H]1Cc2ncnc(N3CCCC(S(C)(=O)=O)C3)c2CN1c1cc(Cl)nc2[nH]ccc12` (stereo partly drawn) [Example 65, (7R)-6-(6-chloro-1H-pyrrolo[2,3-b]pyridin-4-yl)-7-methyl-4-(3-(methylsulfonyl)-piperidin-1-yl)-5,6,7,8-tetrahydropyrido[4,3-d]-pyrimidine], the IC50 in assay [1] (setting [2]) stood at 8 nM; on ATR/ATRIP complex (setting [3]) it was 159 nM.

`C[C@@H]1Cc2ncnc(N3CCC(O)(C4CC4)CC3)c2CN1c1cc(Cl)nc2[nH]ccc12` [Example 75, (R)-1-(6-(6-chloro-1H-pyrrolo[2,3-b]pyridin-4-yl)-7-methyl-5,6,7,8-tetrahydropyrido[4,3-d]pyrimidin-4-yl)-4-cyclopropylpiperidin-4-ol]: the results for the IC50 (in assay [1] (setting [2]); on ATR/ATRIP complex (setting [3])) were 34 nM and 246 nM, respectively.

In the case of `CCOc1cc(N2Cc3c(ncnc3C3CCN(S(C)(=O)=O)CC3)C[C@@H]2CF)c2cc[nH]c2n1` [Example 55a, (R)-6-(6-ethoxy-1H-pyrrolo[2,3-b]pyridin-4-yl)-7-(fluoromethyl)-4-(1-(methylsulfonyl)piperidin-4-yl)-5,6,7,8-tetrahydropyrido[4,3-d]pyrimidine], the IC50 in assay [1] (setting [2]) was found to be 2360 nM; at ATR/ATRIP complex (setting [3]), 25000 nM.

As to `CS(=O)(=O)N1CCC(c2ncnc3c2CN(c2ccnc4[nH]ccc24)[C@@H](CF)C3)CC1` [Example 52a, (R)-7-(fluoromethyl)-4-(1-(methylsulfonyl)piperidin-4-yl)-6-(1H-pyrrolo[2,3-b]pyridin-4-yl)-5,6,7,8-tetrahydropyrido[4,3-d]pyrimidine], the IC50 in assay [1] (setting [2]) came out at 10000 nM; on ATR/ATRIP complex (setting [3]) it was 30000 nM.

As for `C[C@@H]1Cc2ncnc(N3CCN(S(C)(=O)=O)CC3)c2CN1c1cc(Cl)nc2[nH]ccc12` [Example 20, 1-[(7R)-6-{6-chloro-1H-pyrrolo[2,3-b]pyridin-4-yl}-7-methyl-5H,6H,7H,8H-pyrido[4,3-d]pyrimidin-4-yl]-4-methanesulfonyl-piperazine], the IC50 in assay [1] (setting [2]) was 97 nM; on ATR/ATRIP complex (setting [4]), 1000 to 10000 nM.

Consider `C[C@@H]1Cc2ncnc(C3CCN(S(C)(=O)=O)CC3)c2CN1c1cc(C#N)nc2[nH]ccc12` [Example 98, (R)-4-(7-methyl-4-(1-(methylsulfonyl)piperidin-4-yl)-7,8-dihydro-pyrido[4,3-d]pyrimidin-6(5H)-yl)-1H-pyrrolo-[2,3-b]pyridine-6-carbonitrile], for which the IC50 in assay [1] (setting [2]) turned out to be 265 nM; on ATR/ATRIP complex (setting [3]) it was 336 nM.

Consider `C[C@@H]1Cc2ncnc(N3CCS(=O)(=O)CC3)c2CN1c1cc(Cl)nc2[nH]ccc12` [Example 22, 4-[(7R)-6-{6-chloro-1H-pyrrolo[2,3-b]pyridin-4-yl}-7-methyl-5H,6H,7H,8H-pyrido[4,3-d]pyrimidin-4-yl]-1λ^6-thiomorpholine-1,1-dione], for which the IC50 is 554 nM in assay [1] (setting [2]) and 1000 to 10000 nM on ATR/ATRIP complex (setting [4]).

In the case of `C[C@@H]1Cc2ncnc(C3CCN(S(C)(=O)=O)CC3)c2CN1c1cc(OC2CC2)nc2[nH]ccc12` [Example 97, (R)-6-(6-cyclopropoxy-1H-pyrrolo[2,3-b]pyridin-4-yl)-7-methyl-4-(1-(methylsulfonyl)piperidin-4-yl)-5,6,7,8-tetrahydro-pyrido[4,3-d]pyrimidine], the IC50 in assay [1] (setting [2]) is 13 nM; at ATR/ATRIP complex (setting [3]) it was 93 nM.

Consider `CCC1(O)CCN(c2ncnc3c2CN(c2cc(Cl)nc4[nH]ccc24)[C@H](C)C3)CC1` [Example 46, (R)-1-(6-(6-Chloro-1H-pyrrolo[2,3-b]pyridin-4-yl)-7-methyl-5,6,7,8-tetrahydropyrido[4,3-d]pyrimidin-4-yl)-4-ethylpiperidin-4-ol], for which the IC50 worked out at 21 nM in assay [1] (setting [2]) and 282 nM on ATR/ATRIP complex (setting [3]).

Regarding “N-((1R,5S,8R)-3-((R)-7- methyl-6-(1H-pyrrolo- [2,3-b]pyridin-4-yl)- 5,6,7,8-tetrahydropyrido- [4,3-d]pyrimidin-4-yl)-3- azabicyclo[3.2.1]octan-8- yl)methanesulfonamide [Example 74]”, the results for the IC50 (in assay [1] (HT-29 cells); at ATR/ATRIP complex (setting [3])) were 31 nM and 279 nM, respectively.
